Reference: the NIST ThermoML archive (doi:10.1016/j.jct.2010.04.013)

Assay: mn = molality of the nth substance listed, in mol/kg
Conditions: 101 kPa, Liquid; for mass density: Vibrating tube method; for speed of sound: Pulse-echo method

[O-][Cl+3]([O-])([O-])[O-].[O-][Cl+3]([O-])([O-])[O-].[Sr+2] [strontium perchlorate] + CO
Conditions | mass density, 283.15 K [kg/m3] | mass density, 288.15 K [kg/m3] | mass density, 293.15 K [kg/m3] | mass density, 298.15 K [kg/m3] | mass density, 303.15 K [kg/m3] | mass density, 308.15 K [kg/m3] | mass density, 313.15 K [kg/m3] | speed of sound, 298.15 K [m/s]
m1 = 0.06323 | 814.327 | 809.615 | 804.898 | 800.168 | 795.42 | 790.66 | 785.866 | 1108
m1 = 0.07864 | 817.708 | 812.989 | 808.269 | 803.533 | 798.779 | 794.012 | 789.214 | 1109.7
m1 = 0.09378 | 821.019 | 816.297 | 811.567 | 806.826 | 802.074 | 797.297 | 792.492 | 1111.1
m1 = 0.1093 | 824.484 | 819.755 | 815.021 | 810.274 | 805.504 | 800.727 | 795.92 | 1112.6
m1 = 0.1234 | 827.609 | 822.874 | 818.133 | 813.381 | 808.608 | 803.819 | 799.011 | 1114
m1 = 0.154 | 834.44 | 829.692 | 824.939 | 820.172 | 815.389 | 810.594 | 805.771 | 1116.9
m1 = 0.1834 | 841.064 | 836.304 | 831.54 | 826.763 | 821.965 | 817.158 | 812.326 | 1120
m1 = 0.2113 | 847.498 | 842.723 | 837.945 | 833.161 | 828.36 | 823.539 | 818.693 | 1122.7
m1 = 0.2388 | 853.778 | 848.993 | 844.206 | 839.406 | 834.589 | 829.75 | 824.9 | 1125.5
m1 = 0.266 | 860.252 | 855.456 | 850.654 | 845.848 | 841.026 | 836.183 | 831.317 | 1128.2
m1 = 0.2946 | 867.084 | 862.275 | 857.464 | 852.642 | 847.803 | 842.939 | 838.069 | 1131.4

[Ca+2].[O-][Cl+3]([O-])([O-])[O-].[O-][Cl+3]([O-])([O-])[O-] [calcium diperchlorate] + CO
Conditions | mass density, 283.15 K [kg/m3] | mass density, 288.15 K [kg/m3] | mass density, 293.15 K [kg/m3] | mass density, 298.15 K [kg/m3] | mass density, 303.15 K [kg/m3] | mass density, 308.15 K [kg/m3] | mass density, 313.15 K [kg/m3] | speed of sound, 298.15 K [m/s]
m1 = 0.04342 | 808.441 | 803.768 | 799.077 | 794.369 | 789.647 | 784.898 | 780.124 | 1107.2
m1 = 0.05807 | 811.094 | 806.419 | 801.722 | 797.014 | 792.292 | 787.544 | 782.768 | –
m1 = 0.07009 | 813.264 | 808.591 | 803.899 | 799.189 | 794.463 | 789.714 | 784.937 | 1110.9
m1 = 0.08408 | 815.804 | 811.129 | 806.432 | 801.724 | 796.994 | 792.241 | 787.454 | 1112.6
m1 = 0.09795 | 818.319 | 813.643 | 808.941 | 804.234 | 799.508 | 794.756 | 789.975 | 1114.4
m1 = 0.1113 | 820.755 | 816.078 | 811.379 | 806.668 | 801.938 | 797.181 | 792.393 | 1116.1
m1 = 0.1396 | 825.906 | 821.224 | 816.525 | 811.81 | 807.078 | 802.323 | 797.541 | 1119.6
m1 = 0.1663 | 830.829 | 826.145 | 821.443 | 816.722 | 811.986 | 807.224 | 802.43 | 1123
m1 = 0.1921 | 835.646 | 830.963 | 826.254 | 821.535 | 816.796 | 812.035 | 807.248 | 1126.7
m1 = 0.2177 | 840.443 | 835.754 | 831.044 | 826.321 | 821.577 | 816.812 | 812.023 | 1129.5
m1 = 0.2427 | 845.09 | 840.401 | 835.687 | 830.964 | 826.212 | 821.445 | 816.651 | 1132.9
m1 = 0.269 | 850.052 | 845.358 | 840.641 | 835.911 | 831.162 | 826.391 | 821.596 | 1136.3
